Data set [1] has as its system primary cortico-hippocampal neuron cultures. The data set can be described thus: lactate dehydrogenase (LDH) activity assay in parallel neuron cultures.
Protocol: For in vitro treatments drugs available from “The Spectrum Collection” in stocks of 10 mM in DMSO were applied directly to cultures to the desired concentrations (final 1% DMSO); control primary neuron cultures from Tg2576 embryos were treated with vehicle resulting in a final 1% DMSO.
Cell viability was assessed using a commercial available LDH assay kit according to the manufacture's instruction (Promega).
Data set [2] shares this test system. The data set can be described thus: MTT in primary screening.
The test system of data set [3] is Aβ1-42. The data set can be described thus: Aβ1-42 content in conditioned medium of primary cortico-hippocampal neuron cultures from Tg2576 mice (ELISA; primary and secondary dose-response screening). Type of data set: cell-based, mouse. The conditions noted are these: for activity at 100 µM: Mus musculus, Neuron, 24 h, read-out: Ab1-42 (% of ctl); for activity at 100 µM / Ab1-42 (% of ctl): drug 100 μM; for reducing Aβ1-42: <85% of ctl. The method in brief:
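This screen tested cardiovascular drugs for Aβ-lowering in Tg2576 embryonic cortico-hippocampal neuron cultures plated at 1.0×10^5 cells per well in poly-D-lysine-coated 96-well plates with Neurobasal/B27 medium. Drugs at 100 μM were added directly to the medium in duplicate, with 1% DMSO alone as the control. Conditioned medium was then collected, and its Aβ1-42 level was quantified with BioSource ELISA kits.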
Background: An ELISA detects its analyte on a solid surface through an enzyme-linked reagent.

The subject of data set [4] is Aβ1-40. The data set can be described thus: Aβ1-40 content in conditioned medium of primary cortico-hippocampal neuron cultures from Tg2576 mice (ELISA; primary and secondary dose-response screening). The settings on record: for activity at 100 µM: Mus musculus, Neuron, 24 h, read-out: Ab1-40 (% of ctl); for activity at 100 µM / Ab1-40 (% of ctl): drug 100 μM; for reduced Aβ1-40: <85% of ctl. Type of data set: cell-based, mouse. The method in brief:
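Primary cortico-hippocampal neurons from embryonic Tg2576 mice were plated at 1.0×10^5 cells per well on poly-D-lysine-coated 96-well plates in Neurobasal with 2% B27, 0.5 mM L-glutamine and 1% penicillin-streptomycin. Cultures received drug in 1% DMSO, and Aβ1-40 in the conditioned medium was measured by BioSource ELISA 24 hours after treatment, relative to vehicle controls.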

[5] abbreviates: Primary Screening, table sorted by Aβ1-40.
The mark [6] stands for this setting: primary screening, table sorted by Aβ1-42.
The mark [7] stands for this setting: primary screening, Tg2576 neuron cultures, table sorted by Aβ1-42.

Molecules are shown by their SMILES. Where a name gives a salt, the structure may show the parent alone. Read-outs that look alike come from different tables or passages of the source.

Take `CO[C@]12C[C@@H](COC(=O)c3cncc(Br)c3)CN(C)[C@@H]1Cc1cn(C)c3cccc2c13` [Nicergoline]: the “LDH (% of ctl)” value in data set [1] (setting [5]) and in data set [1] (setting [6]) was 106.2 % of ctl each time. For the same molecule, the “MTT (% of ctl)” value in data set [2] (setting [5]) and in data set [2] (setting [6]) was 99.8 % of ctl each time. For the same molecule, the activity at 100 µM in data set [3] (setting [5]) was 98.5%; in data set [3] (setting [7]), 98.5%; in data set [4] (setting [5]) it was 76.1%; in data set [4] (setting [7]), 76.1%. Also, the “reduced Aβ1-40” value in data set [4] (primary screening) is “reduced Aβ1-40”.

In the case of `O=C(O)C(O)C(O)C(=O)O.OCc1cccnc1` (stereo not shown) [Nicotinyl Tartrate], the “LDH (% of ctl)” value in data set [1] (setting [5]) and in data set [1] (setting [6]) was 122.6 % of ctl throughout. Moreover, the “MTT (% of ctl)” value in data set [2] (setting [5]) and in data set [2] (setting [6]) was 92.7 % of ctl in each case. Moreover, the “Ab1-42 (% of ctl)” value in data set [3] (setting [5]) and in data set [3] (setting [7]) was 73.8 % of ctl throughout. Also, in data set [3] (primary screening), the “reducing Aβ1-42” value is “useful in reducing Aβ1-42”. For the same molecule, the “Ab1-40 (% of ctl)” value in data set [4] (setting [5]) and in data set [4] (setting [7]) was 80.0 % of ctl each time. Also, in data set [4] (primary screening), the “reduced Aβ1-40” value was “reduced Aβ1-40”.

Take `CC(CCc1ccccc1)NC(C)C(O)c1ccc(O)cc1` (stereo not shown) [Nylidrin Hydrochloride]: the “LDH (% of ctl)” value in data set [1] (setting [5]) and in data set [1] (setting [6]) was 115.6 % of ctl throughout. For the same molecule, the “MTT (% of ctl)” value in data set [2] (setting [5]) and in data set [2] (setting [6]) was 79.7 % of ctl throughout. In addition, the activity at 100 µM is 90.4% in data set [3] (setting [5]), 90.4% in data set [3] (setting [7]), 70.5% in data set [4] (setting [5]) and 70.5% in data set [4] (setting [7]). Moreover, the “reduced Aβ1-40” value in data set [4] (primary screening) is reported as “reduced Aβ1-40”.

As for `CCCc1nc(C(C)(C)O)c(C(=O)OCc2oc(=O)oc2C)n1Cc1ccc(-c2ccccc2-c2nnn[nH]2)cc1` [Olmesartan Medoxomil], the “LDH (% of ctl)” value in data set [1] (setting [5]) and in data set [1] (setting [6]) was 90.7 % of ctl in each case. Also, the “MTT (% of ctl)” value in data set [2] (setting [5]) and in data set [2] (setting [6]) was 90.7 % of ctl each time. The activity at 100 µM is 70.7% in data set [3] (setting [5]), 70.7% in data set [3] (setting [7]), 83.9% in data set [4] (setting [5]) and 83.9% in data set [4] (setting [7]). Besides, the “reducing Aβ1-42” value in data set [3] (primary screening) is “useful in reducing Aβ1-42”. Also, the “reduced Aβ1-40” value in data set [4] (primary screening) is “reduced Aβ1-40”.

On to `Cc1cc(C(C)(C)C)c(O)c(C)c1CC1=NCCN1` [Oxymetazoline Hydrochloride], for which the “LDH (% of ctl)” value in data set [1] (setting [5]) and in data set [1] (setting [6]) was 97.0 % of ctl throughout. Further, the “MTT (% of ctl)” value in data set [2] (setting [5]) and in data set [2] (setting [6]) was 97.3 % of ctl in each case. Moreover, the activity at 100 µM worked out at 44.9% in data set [3] (setting [5]), 44.9% in data set [3] (setting [7]), 78% in data set [4] (setting [5]) and 78% in data set [4] (setting [7]). In data set [3] (primary screening), the “reducing Aβ1-42” value is “useful in reducing Aβ1-42”. Moreover, the “reduced Aβ1-40” value in data set [4] (primary screening) is “reduced Aβ1-40”.

Turning to `C#CCN(C)Cc1ccccc1` [Pargyline Hydrochloride], the “LDH (% of ctl)” value in data set [1] (setting [5]) and in data set [1] (setting [6]) was 116.9 % of ctl throughout. For the same molecule, the “MTT (% of ctl)” value in data set [2] (setting [5]) and in data set [2] (setting [6]) was 86.4 % of ctl each time. The activity at 100 µM in data set [3] (setting [5]) was 106%; in data set [3] (setting [7]) it was 106%; in data set [4] (setting [5]), 78.6%; in data set [4] (setting [7]), 78.6%. The “reduced Aβ1-40” value in data set [4] (primary screening) was “reduced Aβ1-40”.

For the molecule `CN1C(C)(C)CCCC1(C)C` [Pempidine Tartrate], the “LDH (% of ctl)” value in data set [1] (setting [5]) and in data set [1] (setting [6]) was 108.4 % of ctl throughout. Further, the “MTT (% of ctl)” value in data set [2] (setting [5]) and in data set [2] (setting [6]) was 91.3 % of ctl throughout. Also, the activity at 100 µM in data set [3] (setting [5]) was determined as 78.6%; in data set [3] (setting [7]) it was 78.6%; in data set [4] (setting [5]), 80.9%; in data set [4] (setting [7]), 80.9%. In data set [3] (primary screening), the “reducing Aβ1-42” value was “useful in reducing Aβ1-42”. For the same molecule, the “reduced Aβ1-40” value in data set [4] (primary screening) was “reduced Aβ1-40”.

Regarding `C[N+]1(CCCCC[N+]2(C)CCCC2)CCCC1` [Pentolinium Tartrate], the “LDH (% of ctl)” value in data set [1] (setting [5]) and in data set [1] (setting [6]) was 118.0 % of ctl throughout. Also, the “MTT (% of ctl)” value in data set [2] (setting [5]) and in data set [2] (setting [6]) was 103.8 % of ctl in each case. Moreover, the activity at 100 µM in data set [3] (setting [5]) came out at 134%; in data set [3] (setting [7]), 134%; in data set [4] (setting [5]), 121%; in data set [4] (setting [7]) it was 121%.

In the case of `CC(=O)CCCCn1c(=O)c2c(ncn2C)n(C)c1=O` [Pentoxifylline], the “LDH (% of ctl)” value in data set [1] (setting [5]) and in data set [1] (setting [6]) was 132.4 % of ctl in each case. Further, the “MTT (% of ctl)” value in data set [2] (setting [5]) and in data set [2] (setting [6]) was 91.1 % of ctl each time. For the same molecule, the activity at 100 µM in data set [3] (setting [5]) turned out to be 109%; in data set [3] (setting [7]) it was 109%; in data set [4] (setting [5]), 97.1%; in data set [4] (setting [7]), 97.1%.

Regarding `C1CCC(C(CC2CCCCN2)C2CCCCC2)CC1` (stereo not shown) [Perhexiline Maleate], the “LDH (% of ctl)” value in data set [1] (setting [5]) and in data set [1] (setting [6]) was 1065.9 % of ctl in each case. Moreover, the “MTT (% of ctl)” value in data set [2] (setting [5]) and in data set [2] (setting [6]) was 7.2 % of ctl in each case. The activity at 100 µM in data set [3] (setting [5]) was 26.2%; in data set [3] (setting [7]), 26.2%; in data set [4] (setting [5]) it was 4.8%; in data set [4] (setting [7]), 4.8%. Besides, the “reducing Aβ1-42” value in data set [3] (primary screening) is “useful in reducing Aβ1-42”. Besides, the “reduced Aβ1-40” value in data set [4] (primary screening) is listed as “reduced Aβ1-40”.

For the molecule `O=C1c2ccccc2C(=O)C1c1ccccc1` [Phenindione], the “LDH (% of ctl)” value in data set [1] (setting [5]) and in data set [1] (setting [6]) was 107.9 % of ctl throughout. In addition, the “MTT (% of ctl)” value in data set [2] (setting [5]) and in data set [2] (setting [6]) was 108.8 % of ctl in each case. The activity at 100 µM was determined as 105% in data set [3] (setting [5]), 105% in data set [3] (setting [7]), 104% in data set [4] (setting [5]) and 104% in data set [4] (setting [7]).

On to `CC(C)NCC(O)COc1cccc2[nH]ccc12` (stereo not shown) [Pindolol], for which the “LDH (% of ctl)” value in data set [1] (setting [5]) and in data set [1] (setting [6]) was 171.7 % of ctl each time. The “MTT (% of ctl)” value in data set [2] (setting [5]) and in data set [2] (setting [6]) was 98.9 % of ctl in each case. Moreover, the activity at 100 µM in data set [3] (setting [5]) was 46.1%; in data set [3] (setting [7]), 46.1%; in data set [4] (setting [5]) it was 99%; in data set [4] (setting [7]), 99%. Further, the “reducing Aβ1-42” value in data set [3] (primary screening) is “useful in reducing Aβ1-42”.

As to `CC(=O)Nc1ccc(OCC(O)CNC(C)C)cc1` (stereo not shown) [Practolol], the “LDH (% of ctl)” value in data set [1] (setting [5]) and in data set [1] (setting [6]) was 108.9 % of ctl each time. For the same molecule, the “MTT (% of ctl)” value in data set [2] (setting [5]) and in data set [2] (setting [6]) was 101.3 % of ctl throughout. Besides, the activity at 100 µM in data set [3] (setting [5]) is 99.9%; in data set [3] (setting [7]), 99.9%; in data set [4] (setting [5]), 99.7%; in data set [4] (setting [7]), 99.7%.

The values above are taken from patent publication US20100029654A1, “CARDIOVASCULAR COMPOSITIONS AND USE OF THE SAME FOR THE TREATMENT OF ALZHEIMER'S DISEASE” (MOUNT SINAI SCHOOL OF MEDICINE, priority 2006, published 2010).
